Results: US8822407B2, “Preparation of conjugates comprising adenine derivatives and allergenic proteins and their use for specific immunotherapy of allengenic diseases” (Universita' Degli Studi di Firenze, priority 2010, dated 2014)

What was measured:
[1] = system: purified CD14+ cells; assay: Cytokine production by purified CD14+ cells (ELISA of supernatants, 36 hrs); format: cell-based, human; settings: for IL-6 production / IL-10 production / IL-12p40 production / TNF-alfa production: Table A
Experimental: Circulating mononuclear cells (MNC) are isolated by density gradient (Ficoll-Hypaque) using buffy coats from 14 normal donors (Servizio Immunotrasfusionale e terapie cellulari, Azienda Ospedaliera Universitaria A. Meyer, Firenze). 200×10^6 MNC are separated by the use of a commercial kit (CD14 isolation kit, Miltenyi) by the addition of 400 μl anti-CD14 monoclonal antibody bound to iron beads followed by isolation on magnetic columns (LS column). 50×10^6 monocytes are recovered by positive selection and are extensively washed with calcium and magnesium-free sterile PBS and then seeded in complete medium plus 10% foetal calf serum in 24 flat bottomed plates at the concentration of 1×10^6/ml. […] The plates are incubated for 36 hrs at 37° C. in 5% CO2 humidified atmosphere and the supernatants are collected after centrifugation at 1200 rpm, aliquoted and then stored at −20° C. up to the assay. […]
(§1) For the determination of cytokines and chemokines of the innate immunity, commercial ELISAs have been used: IL-12p40 (Cytoscreen, Biosource Int, Camarillo, Calif.), IFN-alfa (Cytoscreen), TNF-alfa (Cytoscreen), IL-10 (Pharmingen), IL-6 and CXCL10 (R&D System). 100 μl/well of single supernatants are incubated in flat bottomed plates as specified by the productors and the amounts of the single cytokines are expressed as pg/ml on the basis of a reference curve by using recombinant cytokines.

[2] = system: purified BDCA4+ cells; assay: Cytokine production by purified BDCA4+ cells (plasmacytoid dendritic cells), ELISA; format: cell-based, human; settings: for IFN-alfa production / IL-6 production / TNF-alfa production / IL-10 production: Table C
Experimental: The preparation of purified BDCA4+ cells has been obtained in a similar way starting from MNC of buffy coats of the same 14 healthy donors. […] By positive selection 5×10^6 plasmacytoid dendritic cells (PDCs) are recovered, extensively washed with calcium and magnesium-free sterile PBS and seeded in complete medium plus 10% foetal calf serum in 24-flat bottomed plates at the concentration 1×10^6/ml. […] The plates are incubated for 36 hrs at 37° C. in 5% CO2 humidified atmosphere and the supernatants are collected after centrifugation at 1200 rpm, aliquoted and then stored at −20° C. up to the assay. […]
as §1

[3] = target: T1, human TLR7 (Homo sapiens, UniProt Q9NYK1); assay: TLR7 activation, NF-kB luciferase reporter in transfected HEK293 cells; format: cell-based; settings: human TLR7-encoding plasmid
T1 construct: expressed in transfected cells; host or cells: HEK293 (transient Nucleofection, Amaxa)
T1 sequence (Q9NYK1 27-1049): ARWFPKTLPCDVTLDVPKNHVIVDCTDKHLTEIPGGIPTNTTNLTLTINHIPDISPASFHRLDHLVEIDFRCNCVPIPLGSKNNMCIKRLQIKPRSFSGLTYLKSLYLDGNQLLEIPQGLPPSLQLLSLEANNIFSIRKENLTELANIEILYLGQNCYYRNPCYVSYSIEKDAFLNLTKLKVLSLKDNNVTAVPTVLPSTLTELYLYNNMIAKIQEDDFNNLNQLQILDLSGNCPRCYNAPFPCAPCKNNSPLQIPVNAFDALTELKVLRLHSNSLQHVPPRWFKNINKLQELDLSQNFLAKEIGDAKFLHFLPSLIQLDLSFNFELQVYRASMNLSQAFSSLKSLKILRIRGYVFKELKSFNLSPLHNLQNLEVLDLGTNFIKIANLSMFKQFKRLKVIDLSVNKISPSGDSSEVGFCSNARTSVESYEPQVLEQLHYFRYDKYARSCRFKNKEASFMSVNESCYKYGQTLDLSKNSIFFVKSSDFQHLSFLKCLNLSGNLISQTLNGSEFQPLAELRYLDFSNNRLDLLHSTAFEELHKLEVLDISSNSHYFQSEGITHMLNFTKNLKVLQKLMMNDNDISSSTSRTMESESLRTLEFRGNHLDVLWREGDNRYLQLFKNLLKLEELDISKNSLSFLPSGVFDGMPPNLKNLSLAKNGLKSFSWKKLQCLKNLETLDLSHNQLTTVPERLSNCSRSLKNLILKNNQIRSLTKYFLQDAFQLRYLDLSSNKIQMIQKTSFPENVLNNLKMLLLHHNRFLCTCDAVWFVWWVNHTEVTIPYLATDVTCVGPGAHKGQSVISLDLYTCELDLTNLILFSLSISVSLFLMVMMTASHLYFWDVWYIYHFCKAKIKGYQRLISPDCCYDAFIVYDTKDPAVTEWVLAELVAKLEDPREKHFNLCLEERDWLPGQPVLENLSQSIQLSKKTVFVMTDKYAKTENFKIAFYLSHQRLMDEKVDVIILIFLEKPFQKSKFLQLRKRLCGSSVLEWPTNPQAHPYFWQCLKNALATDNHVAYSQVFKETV
Experimental: HEK293 cells are detached by trypsin from the plastic surface of the culture bottle, extensively washed with calcium and magnesium-free PBS, counted and adjusted at the concentration 1×10^6 cells/tube in polypropylene V-bottomed tubes. After the final wash, the cells are pelleted and 100 μl transfection buffer (Amaxa) is added together with […], TLR7, TLR8 or TLR9-encoding and ELAM-1 promoter NF-kB luciferase reporter plasmids. The mixture thus obtained is transferred in special cuvettes and transient transfection is obtained in a special apparatus which is able to directly introduce genetic material into the nucleus (Nucleofection®, Amaxa GmbH). The cells are then recovered and cultured at 1×10^5/ml in 48-flat bottomed plates in E-MEM medium plus 5% foetal calf serum for 18 hrs. […] Finally the luciferase activity is measured in the cellular lysates by a commercial kit (Promega).

## Nc1nc(SCCCC(=O)ON2C(=O)CCC2=O)nc2c1nc(O)n2Cc1ccccc1 [SA-26E, 4-(6-Amino-9-benzyl-8-hydroxy-9H-purin-2-ylsulfanyl)-butyric acid 2,5-dioxo-pyrrolidin-1-yl ester]
[1]; 0.085 μg/ml soluble SA-26E (amount present in Conj-5, -6, -7 and -8)
  cytokine production from purified CD14+ cells (in words): not able to stimulate the production of any cytokine
[1]; Donor #1, dose 0.085 μg/ml
  IL-6 production: 0 pg/mL
  IL-10 production: 0 pg/mL
  IL-12p40 production: 0 pg/mL
  TNF-alfa production: 0 pg/mL
[1]; Donor #1, dose 0.6 μg/ml
  IL-6 production: 0 pg/mL
  IL-10 production: 124 pg/mL
  IL-12p40 production: 569 pg/mL
  TNF-alfa production: 345 pg/mL
[1]; Donor #1, dose 2.5 μg/ml
  IL-6 production: 11 pg/mL
  IL-10 production: 618 pg/mL
  IL-12p40 production: 863 pg/mL
[1]; Donor #1, dose 10 μg/ml
  IL-6 production: 2930 pg/mL
  IL-10 production: 609 pg/mL
  IL-12p40 production: 2500 pg/mL
  TNF-alfa production: 2123 pg/mL
[1]; Donor #2, dose 0.085 μg/ml
  IL-6 production: 0 pg/mL
  IL-10 production: 0 pg/mL
  IL-12p40 production: 0 pg/mL
  TNF-alfa production: 0 pg/mL
[1]; Donor #2, dose 0.6 μg/ml
  IL-6 production: 0 pg/mL
  IL-10 production: 0 pg/mL
  IL-12p40 production: 785 pg/mL
  TNF-alfa production: 466 pg/mL
[1]; Donor #2, dose 2.5 μg/ml
  IL-6 production: 4 pg/mL
  IL-12p40 production: 2464 pg/mL
  TNF-alfa production: 1267 pg/mL
[1]; Donor #2, dose 10 μg/ml
  IL-6 production: 163 pg/mL
  IL-10 production: 584 pg/mL
  IL-12p40 production: 4800 pg/mL
  TNF-alfa production: 3730 pg/mL
[1]; text to Tables A and B
  cytokine production from purified CD14+ cells (in words): intermediate effect
[2]; 0.085 μg/ml concentration
  cytokine production from BDCA4+ cells (in words): completely inactive
[2]; Donor #1, dose 0.085 μg/ml
  IFN-alfa production: 0 pg/mL
  IL-6 production: 0 pg/mL
  TNF-alfa production: 0 pg/mL
[2]; Donor #1, dose 0.6 μg/ml
  IFN-alfa production: 179 pg/mL
  IL-6 production: 0 pg/mL
  IL-10 production: 0 pg/mL
  TNF-alfa production: 183 pg/mL
[2]; Donor #1, dose 2.5 μg/ml
  IFN-alfa production: 179 pg/mL
  IL-6 production: 0 pg/mL
  IL-10 production: 0 pg/mL
  TNF-alfa production: 252 pg/mL
[2]; Donor #1, dose 10 μg/ml
  IFN-alfa production: 486 pg/mL
  IL-6 production: 675 pg/mL
  IL-10 production: 896 pg/mL
  TNF-alfa production: 858 pg/mL
[2]; Donor #2, dose 0.085 μg/ml
  IFN-alfa production: 0 pg/mL
  IL-6 production: 0 pg/mL
  IL-10 production: 0 pg/mL
  TNF-alfa production: 0 pg/mL
[2]; Donor #2, dose 0.6 μg/ml
  IFN-alfa production: 669 pg/mL
  IL-6 production: 0 pg/mL
  IL-10 production: 0 pg/mL
  TNF-alfa production: 520 pg/mL
[2]; Donor #2, dose 2.5 μg/ml
  IFN-alfa production: 2014 pg/mL
  IL-6 production: 760 pg/mL
  TNF-alfa production: 1157 pg/mL
[2]; Donor #2, dose 10 μg/ml
  IFN-alfa production: 3589 pg/mL
  IL-6 production: 1439 pg/mL
  IL-10 production: 750 pg/mL
  TNF-alfa production: 3405 pg/mL
[2]; text to Tables C and D
  cytokine production from BDCA4+ cells (in words): intermediate effect
[3]
  TLR7 activation (NF-κB luciferase) in transfected HEK293 cells: completely inactive
